Reference: patent US20060105361A1, “Donor yeast strain for transfer of genetic material” (priority 2004, published 2006)

Test system: wild-type strains
Experiment: Spot tests of yeast strains on SD-leu plates containing camptothecin and CuSO4
Type: cell-based, Saccharomyces cerevisiae
Description: The mutant and wild-type TOP1 were cloned under the control of the copper-inducible CUP1 promoter. These plasmids were transformed into the MATa universal donor strain (J1361), the MATalpha deletion library wild-type strain (BY4742) and rad9 and rad50 deletion strains from the library. Transformation reactions were plated on SD-leu media and incubated for 3 days at 30° C. to allow colony growth. […] B. Transformants from A were grown overnight in liquid SD-leu media, equalized by OD, serially diluted and spotted onto SD-leu plates containing the indicated concentrations of CuSO4. Each panel is a group of three strains containing the vector, TOP1 or TOP1-T722A plasmids as indicated on the right. […] Spot tests shown at the bottom contain 5 μg/ml camptothecin.

**Q.** For `CC[C@@]1(O)C(=O)OCc2c1cc1n(c2=O)Cc2cc3ccccc3nc2-1` [camptothecin], which “sensitivity (viability in spot test) of strains containing the TOP1-T722A plasmid” value (5 μg/ml camptothecin, wild-type cells with CUP1-promoter TOP1-T722A plasmid, graded CuSO4) is on record?
**A.** Its value is “roughly additive effect of the TOP1-T722A mutant in conjunction with camptothecin”.

**Q.** What about the “sensitivity (viability in spot test) of strains containing the TOP1 plasmid” value (5 μg/ml camptothecin, wild-type strain (BY4742) with CUP1-promoter TOP1 plasmid, graded CuSO4) of the same compound?
**A.** The value was “only sensitive to the drug when Top1 is overexpressed by 100 μM copper”.

**Q.** And the “viability of the library strain on plates containing camptothecin” value (library strain is TOP1, relatively low doses of drug, no TOP1 overexpression)?
**A.** Its value is “do not affect viability”.
